Results on 6 molecules are retold here after patent US8420336B2, “Method of bioassaying yokukansan” (priority 2008, dated 2013).

In one test the target is AMPA receptors. Briefly: Binding test for test drug to AMPA receptors ([3H]AMPA competition). Also noted: species or system Wistar rat. Particulars: labeled ligand of the assay, listed among the conditions. The method, then: (§1) 20 mg of a test drug (TJ-54 or an extract of the constituent crude drug) was weighed. Distilled water was added to the test drug so as to give a concentration of 20 mg/125 μL (20 mg/100 μL for the extract of the constituent crude drug), and further the resulting solution was diluted to 2-fold with DMSO, which was used as a stock solution. This stock solution was diluted to have each concentration.
(2) Binding Test for Test Drug to AMPA Receptors
20 mL/g of 50 mM Tris-HCl buffer (containing 200 mM KSCN) was added to the cerebral cortex tissue collected from a Wistar rat. […]
(§2) After completion of the incubation, the mixture was filtered through a glass fiber filter (Whatman 1821-915 GF/B, Whatman) using a cell harvester (Brandel MLR-48, Skatron micro-96, Perkin Elmer), and the filter was washed 3 to 6 times with 50 mM Tris-HCl buffer. Then, the radioactivity of [^3H]AMPA on the glass fiber filter was measured using a liquid scintillation counter (Wallac Counter, Perkin Elmer). As for the nonspecific binding, the radioactivity of [^3H]AMPA in the presence of 1000 μM unlabeled L-glutamate was measured. As for the total binding, the radioactivity of [^3H]AMPA in the absence of the test drug was measured. The binding activity of the test drug was evaluated on the basis of the binding inhibition ratio obtained from the above formula. […]

The next test concerns the target glutamate receptors. Briefly: Non-selective binding test for test drug to glutamate receptors ([3H]L-glutamate competition). On the set-up: species or system Wistar rat. The note with it: labeled ligand of the assay; listed among the conditions of the experiment. The protocol:
as §1
(1) Non-Selective Binding Test for Test Drug to Glutamate Receptors
20 mL/g of 50 mM Tris-HCl buffer was added to the brain tissue collected from a Wistar rat. […]
as §2, with “[^3H]L-glutamate” for “[^3H]AMPA”, “50” for “1000”, “calculated from” for “evaluated on”, “following” for “basis of the”, “(%).” for “obtained from the above formula.”

The next test concerns the target T1, human recombinant mGluR5 (Homo sapiens, UniProt P41594).
T1 construct: purchased Perkin Elmer; host or cells: CHO-K1 cell membranes
Nature of the test: Binding test for test drug to metabotropic glutamate receptor mGluR5 ([3H]quisqualic acid competition). The note with it: labeled ligand of the assay; listed among the conditions.

In the next test the target is kainate receptors. Briefly: Binding test for test drug to kainate receptors ([3H]kainic acid competition). Particulars: labeled ligand of the assay; listed among the conditions. On the set-up: species or system Wistar rat. The method, then:
as §1
(3) Binding Test for Test Drug to Kainate Receptors
20 mL/g of 50 mM Tris-HCl buffer was added to the brain tissue excluding the cerebellum tissue collected from a Wistar rat. The resulting mixture was homogenized, and centrifugation (48,000×g for 15 minutes at 4° C.) of the homogenate was repeated three times to obtain a membrane fraction. […]
Then, the radioactivity of [^3H]kainic acid on the glass fiber filter was measured using a liquid scintillation counter (Wallac Counter, Perkin Elmer). As for the nonspecific binding, the radioactivity of [^3H]kainic acid in the presence of 1000 μM unlabeled L-glutamate was measured. As for the total binding, the radioactivity of [^3H]kainic acid in the absence of the test drug was measured. The binding activity of the test drug was evaluated on the basis of the binding inhibition ratio obtained from the above formula. […]

Test [1] has as its target glutamate binding site of NMDA receptors. Nature of the test: Binding test for test drug to glutamate binding site of NMDA receptors ([3H]CGP-39653 competition). Particulars: labeled ligand of the assay; listed among the conditions. On the set-up: species or system Wistar rat. The method, then: as §1
(4) Binding Test for Test Drug to Glutamate Binding Site of NMDA Receptors
20 mL/g of 50 mM Tris-HCl buffer was added to the cerebral cortex tissue collected from a Wistar rat. The resulting mixture was homogenized, and the homogenate was centrifuged (1,000×g for 10 minutes at 4° C.). […]
as §2, with “[^3H]CGP-39653” for “[^3H]AMPA”, “measured.” for “measured. The binding activity of the test drug was evaluated on the basis of the binding inhibition ratio obtained from the above formula.”

In test [2] the target is T2, glycine binding site of NMDA receptors (Rattus norvegicus, UniProt P35439).
T2 construct: cerebral cortex tissue collected from a Wistar rat; from tissue; host or cells: cerebral cortex of Wistar rat, membrane fraction
Briefly: Binding test for test drug to glycine binding site of NMDA receptors ([3H]MDL-105519 competition). Particulars: labeled ligand of the assay; listed among the conditions. Also noted: species or system Wistar rat.
Protocol: 20 mL/g of 50 mM HEPES buffer was added to the cerebral cortex tissue collected from a Wistar rat. The resulting mixture was homogenized, and the homogenate was centrifuged (1,000×g for 10 minutes at 4° C.). Then, the resulting supernatant was collected and centrifuged (20,000×g for 20 minutes at 4° C.) to obtain a pellet. The pellet was resuspended in a buffer and the suspension was centrifuged (8,000×g for 20 minutes at 4° C.). Further, the resulting supernatant was collected and centrifuged (48,000×g for 20 minutes at 4° C.) to obtain a pellet. […]
After completion of the incubation, the mixture was filtered through a glass fiber filter (Whatman 1821-915 GF/B, Whatman) using a cell harvester (Brandel MLR-48, Skatron micro-96, Perkin Elmer), and the filter was washed 3 to 6 times with 50 mM HEPES buffer. Then, the radioactivity of [^3H]MDL-105519 on the glass fiber filter was measured using a liquid scintillation counter (Wallac Counter, Perkin Elmer). As for the nonspecific binding, the radioactivity of [^3H]MDL-105519 in the presence of 10 μM unlabeled MDL-105519 was measured. As for the total binding, the radioactivity of [^3H]MDL-105519 in the absence of the test drug was measured. The binding activity of the test drug was evaluated on the basis of the binding inhibition ratio obtained from the above formula. […]

Where two headings read alike, the source gives them in different places.

T1 sequence (P41594 21-1212): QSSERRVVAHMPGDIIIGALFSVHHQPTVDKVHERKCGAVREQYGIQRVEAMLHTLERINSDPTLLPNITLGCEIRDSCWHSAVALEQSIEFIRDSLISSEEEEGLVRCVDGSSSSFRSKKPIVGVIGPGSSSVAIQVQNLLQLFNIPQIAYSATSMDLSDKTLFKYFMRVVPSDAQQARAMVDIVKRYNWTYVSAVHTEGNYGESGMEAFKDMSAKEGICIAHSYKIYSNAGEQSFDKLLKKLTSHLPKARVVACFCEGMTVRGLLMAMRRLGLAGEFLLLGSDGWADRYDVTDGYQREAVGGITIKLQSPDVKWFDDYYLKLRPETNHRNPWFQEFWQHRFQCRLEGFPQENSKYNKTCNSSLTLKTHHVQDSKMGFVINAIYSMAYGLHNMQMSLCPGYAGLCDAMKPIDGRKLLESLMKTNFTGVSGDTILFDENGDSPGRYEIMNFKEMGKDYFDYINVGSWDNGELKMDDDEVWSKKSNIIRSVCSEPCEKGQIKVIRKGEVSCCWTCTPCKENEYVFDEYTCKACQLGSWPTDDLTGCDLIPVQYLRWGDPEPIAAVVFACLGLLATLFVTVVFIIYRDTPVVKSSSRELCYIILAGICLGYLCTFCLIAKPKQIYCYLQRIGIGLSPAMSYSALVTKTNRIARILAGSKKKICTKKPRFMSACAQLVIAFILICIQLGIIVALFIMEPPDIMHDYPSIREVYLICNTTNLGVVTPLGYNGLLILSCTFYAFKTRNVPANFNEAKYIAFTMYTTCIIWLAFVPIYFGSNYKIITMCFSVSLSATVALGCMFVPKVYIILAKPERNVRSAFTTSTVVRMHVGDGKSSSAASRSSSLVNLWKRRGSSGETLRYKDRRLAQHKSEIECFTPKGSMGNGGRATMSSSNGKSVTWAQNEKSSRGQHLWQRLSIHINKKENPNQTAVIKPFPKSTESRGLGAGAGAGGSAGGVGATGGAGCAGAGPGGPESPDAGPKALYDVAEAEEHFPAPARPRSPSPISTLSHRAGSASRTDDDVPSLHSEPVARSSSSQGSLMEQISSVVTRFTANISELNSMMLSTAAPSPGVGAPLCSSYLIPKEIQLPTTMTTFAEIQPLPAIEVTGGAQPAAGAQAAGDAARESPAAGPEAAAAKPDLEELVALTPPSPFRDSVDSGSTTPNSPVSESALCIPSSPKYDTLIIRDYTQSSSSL
Protocol for human recombinant mGluR5: (6) Binding Test for Test Drug to Metabotropic Glutamate Receptor mGluR5
30 μg protein/100 μL of a CHO-K1 cell membrane solution, 20 μL of [^3H]quisqualic acid (final concentration: 0.03 μM) and 1.1 μL of the test drug solution of each concentration were added to a 1 mL tube, and the resulting mixture was incubated at 25° C. for 2 hours. In the control group, a DMSO solution (final concentration: 0.5%) was added, and the resulting mixture was incubated in the same manner.
After completion of the incubation, the mixture was filtered through a glass fiber filter (Whatman 1821-915 GF/B, Whatman) using a cell harvester (Micro 96 FilterMate, Perkin Elmer), and the filter was washed 6 times with 20 mM HEPES buffer. Then, the radioactivity of [^3H]quisqualic acid on the glass fiber filter was measured using a liquid scintillation counter (Wallac Counter). As for the nonspecific binding, the radioactivity of [^3H]quisqualic acid in the presence of 1000 μM unlabeled L-glutamate was measured. As for the total binding, the radioactivity of [^3H]quisqualic acid in the absence of the test drug was measured. The binding activity of the test drug was evaluated on the basis of the binding inhibition ratio obtained from the above formula.
The respective conditions in this experiment are as follows. […]

For `Cc1onc(O)c1CC(N)C(=O)O` (stereo not drawn) [[^3H]AMPA, α-amino-3-hydroxy-5-methyl-4-isoxazolepropionate], the Kd came to 18 nM on AMPA receptors (Kd1, read-out: Kd (Kd1)) and 990 nM on AMPA receptors (Kd2, read-out: Kd (Kd2)).
On glutamate receptors, `N[C@@H](CCC(=O)O)C(=O)O` [[^3H]L-glutamate, L-glutamate] returned a Kd of 293 nM.
Turning to `N[C@@H](Cn1oc(=O)[nH]c1=O)C(=O)O` [[^3H]quisqualic acid, quisqualic acid], the Kd on human recombinant mGluR5 turned out to be 26 nM.
The molecule `C=C(C)[C@H]1CN[C@H](C(=O)O)[C@H]1CC(=O)O` [[^3H]kainic acid, kainic acid] came in with a Kd at kainate receptors of 12 nM.
With `CCCC(=CC(N)C(=O)O)CP(=O)(O)O` (stereo not shown) [[^3H]CGP-39653], the Kd in test [1] was 19 nM.
`O=C(O)C(=Cc1c(C(=O)O)[nH]c2cc(Cl)cc(Cl)c12)c1ccccc1` [[^3H]MDL-105519] showed a Kd in test [2] of 6 nM.

Usually Kd stands for the concentration at which binding is half-saturated.
